The structures appear in SMILES notation. ± gives the expanded uncertainty stated by the source.

The data set in a line: refractive index (Na D-line) (dimensionless). The note with it: 293.15 K; 101.33 kPa; Liquid; Standard Abbe refractometry.
As to `CCCCO` [butan-1-ol], the refractive index (in general, a measure of how strongly the sample bends light) was found to be 1.39928 ± 0.0004. The figure for `CC(C)CO` [2-methyl-1-propanol] is 1.39563 ± 0.0004; for `CC#N` [acetonitrile] it is 1.34386 ± 0.00035. The result for `O` [water] reads 1.33299 ± 0.00035.

Values taken from the NIST ThermoML archive (doi:10.1021/je5007218).
